# US9783539B2, “Indoloquinolone compounds as anaplastic lymphoma kinase (ALK) inhibitors” (Jiangsu Ascentage Biomed Development Inc., priority 2014, dated 2017)
# “And” between values parts separate entries of the source, which are not always exact repeats. Equal entries are not always repeated. Where two headings read alike, the source gives them in different places.
# Columns and labels:
# [1] = tested on: H3122 non-small cell lung cancer cell line harboring the EML4-ALK fusion gene; test: 4-day cell viability assay (WST), H3122; format: cell-based; conditions: Homo sapiens, NCI-H3122, 96 h, 4 days, read-out: IC50 (nM) in Inhibition of Tumor Cell Growth H3122 Cell line
# Experimental: (§1) The effect of compounds on cell viability was determined in a 4-day proliferation assay. Cells were maintained in RPMI1640 culture medium with 10% FBS at 37° C. and an atmosphere of 5% CO2. […] Cells were seeded in 96-well plates at a density of 3,000-10,000 cells/well in 75 μl of culture medium. Compounds were serially diluted in the appropriate medium, and 75 μl of the diluted compounds were added to the appropriate wells of the cell plate. After the addition of compounds, the cells were incubated at 37° C. in an atmosphere of 5% CO2 for 4 days. Cell viability was determined using the CellTiter-Glo® Luminescent Cell Viability Assay Kit (Promega, Madison, Wis.) (for KARPAS-299 cells) or WST (2-(2-methoxy-4-nitrophenyl)-3-(4-nitrophenyl)-5-(2,4-disulfophenyl)-2H-tetrazolium, monosodium salt) Cell Counting-8 Kit (Dojindo Molecular Technologies, Inc., Rockville, Md.) (for H3122 cells) according to the manufacturers' instructions.
# For WST assay, WST-8 reagent was added to each well at a final concentration of 10% (v/v), and then the plates were incubated at 37° C. for 1-2 hours for color development. The absorbance was measured at 450 nm using a SPECTRAmax PLUS plate reader (Molecular Devices, Sunnyvale, Calif.). The readings were normalized to the DMSO-treated cells and the half maximal inhibitory concentration (IC50) was calculated by nonlinear regression analysis using the GraphPad Prism 5 software (GraphPad Software, La Jolla, Calif.).
# Cells were treated for four days and cell growth was determined using a WST assay.
# [2] = tested on: Kappas-299 cells containing NPM-ALK fusion protein; test: 4-day cell viability assay (CellTiter-Glo), Kappas-299; format: cell-based; conditions: NPM-ALK, 96 h, inhibition of cell growth, 4 days, multiple values from independent experiments
# Experimental: as §1
# For CellTiter-Glo assay, 100 μl of CellTiter-Glo® Reagent was added to each well, and then the plates were incubated at room temperature for 10-20 minutes. The luminescent signal was measured using a Tecan Infinite M1000 multimode microplate reader (Tecan, Morrisville, N.C.). The readings were normalized to the DMSO-treated cells and the IC50 was calculated by nonlinear regression analysis using the GraphPad Prism 5 software.
# Cells were treated for four days and cell growth was determined using a CellTiter-Glo assay.
# [3] = molecular target: wild-type human ALK protein (cytoplasmic domain, amino acid 1058-1620, GST-fusion) (Homo sapiens, UniProt Q9UM73); test: biochemical; conditions: 100 μM ATP
# Sequence of wild-type human ALK protein (cytoplasmic domain, amino acid 1058-1620, GST-fusion) (Q9UM73 1058-1620): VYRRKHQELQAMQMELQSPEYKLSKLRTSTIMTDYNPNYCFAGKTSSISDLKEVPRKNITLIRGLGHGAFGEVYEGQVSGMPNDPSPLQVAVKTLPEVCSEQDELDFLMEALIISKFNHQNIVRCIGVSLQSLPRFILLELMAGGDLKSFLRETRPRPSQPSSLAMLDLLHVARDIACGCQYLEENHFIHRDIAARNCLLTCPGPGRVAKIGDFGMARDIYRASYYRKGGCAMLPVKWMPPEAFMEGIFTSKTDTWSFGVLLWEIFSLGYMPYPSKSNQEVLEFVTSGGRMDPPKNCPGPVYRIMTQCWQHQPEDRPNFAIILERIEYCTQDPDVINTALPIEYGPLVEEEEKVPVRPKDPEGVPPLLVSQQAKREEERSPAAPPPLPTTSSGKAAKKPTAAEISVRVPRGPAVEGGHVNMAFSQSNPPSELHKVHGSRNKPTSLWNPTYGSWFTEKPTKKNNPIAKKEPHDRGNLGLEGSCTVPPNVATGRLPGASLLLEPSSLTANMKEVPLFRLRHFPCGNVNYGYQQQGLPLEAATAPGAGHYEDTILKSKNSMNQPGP
# Experimental: (§2) Kinase activities of all enzymes were assessed using a Lance TR-FRET assay kit from Perkin Elmer Life Sciences (Waltham, Mass.). 2.5 μL of compound solution and 5 μL of protein solution were added into a black low volume 384 well microtiter plate which was incubated for 15 minutes with gentle shaking at room temperature, followed by adding 2.5 μL of fluorescently labeled peptide substrate (Ulight-[sequence]) and ATP mixture solution. The kinase reaction was performed in 50 mM HEPES (pH 7.5) with 1 mM EGTA, 1 mM MgCl2, and 2 mM DTT, 0.01% Tween-20 added right before the assay. […] The reaction was allowed to perform for 90 minutes in dark with gentle shaking at room temperature after which 10 μL of 20 mM EDTA and 2 nM Eu-W1024 anti-phosphotyrosine antibody (PT66) mixture solution in the detection buffer from the manufacturer was added to terminate the reaction and detect the phosphorylation of the peptide substrate. Final mixture was incubated in the dark for 1 hour before the plate was read on a Tecan Infinite M-1000 multi-mode plate reader (Tecan, Durham N.C.) with an excitation wavelength of 320 nm.
# [4] = Pharmacokinetic parameters in SD rats, IV and PO; parameters: AUC(0-t): concentration or dose not given beside the values; conditions: Sprague-Dawley (SD), rat, in vivo; for bioavailability: po, read-out: Oral Bioavailability (F)
# Source text: The pharmacokinetic (PK) parameters in SD rats for selected compounds with intravenous (IV) and oral (PO) administrations are provided in the following table (Table 5).
# [5] = molecular target: ALK mutant (S1206Y) (Homo sapiens, UniProt Q9UM73, S1206Y); test: biochemical
# Sequence of ALK mutant (S1206Y) (Q9UM73 19-1620 S1206Y): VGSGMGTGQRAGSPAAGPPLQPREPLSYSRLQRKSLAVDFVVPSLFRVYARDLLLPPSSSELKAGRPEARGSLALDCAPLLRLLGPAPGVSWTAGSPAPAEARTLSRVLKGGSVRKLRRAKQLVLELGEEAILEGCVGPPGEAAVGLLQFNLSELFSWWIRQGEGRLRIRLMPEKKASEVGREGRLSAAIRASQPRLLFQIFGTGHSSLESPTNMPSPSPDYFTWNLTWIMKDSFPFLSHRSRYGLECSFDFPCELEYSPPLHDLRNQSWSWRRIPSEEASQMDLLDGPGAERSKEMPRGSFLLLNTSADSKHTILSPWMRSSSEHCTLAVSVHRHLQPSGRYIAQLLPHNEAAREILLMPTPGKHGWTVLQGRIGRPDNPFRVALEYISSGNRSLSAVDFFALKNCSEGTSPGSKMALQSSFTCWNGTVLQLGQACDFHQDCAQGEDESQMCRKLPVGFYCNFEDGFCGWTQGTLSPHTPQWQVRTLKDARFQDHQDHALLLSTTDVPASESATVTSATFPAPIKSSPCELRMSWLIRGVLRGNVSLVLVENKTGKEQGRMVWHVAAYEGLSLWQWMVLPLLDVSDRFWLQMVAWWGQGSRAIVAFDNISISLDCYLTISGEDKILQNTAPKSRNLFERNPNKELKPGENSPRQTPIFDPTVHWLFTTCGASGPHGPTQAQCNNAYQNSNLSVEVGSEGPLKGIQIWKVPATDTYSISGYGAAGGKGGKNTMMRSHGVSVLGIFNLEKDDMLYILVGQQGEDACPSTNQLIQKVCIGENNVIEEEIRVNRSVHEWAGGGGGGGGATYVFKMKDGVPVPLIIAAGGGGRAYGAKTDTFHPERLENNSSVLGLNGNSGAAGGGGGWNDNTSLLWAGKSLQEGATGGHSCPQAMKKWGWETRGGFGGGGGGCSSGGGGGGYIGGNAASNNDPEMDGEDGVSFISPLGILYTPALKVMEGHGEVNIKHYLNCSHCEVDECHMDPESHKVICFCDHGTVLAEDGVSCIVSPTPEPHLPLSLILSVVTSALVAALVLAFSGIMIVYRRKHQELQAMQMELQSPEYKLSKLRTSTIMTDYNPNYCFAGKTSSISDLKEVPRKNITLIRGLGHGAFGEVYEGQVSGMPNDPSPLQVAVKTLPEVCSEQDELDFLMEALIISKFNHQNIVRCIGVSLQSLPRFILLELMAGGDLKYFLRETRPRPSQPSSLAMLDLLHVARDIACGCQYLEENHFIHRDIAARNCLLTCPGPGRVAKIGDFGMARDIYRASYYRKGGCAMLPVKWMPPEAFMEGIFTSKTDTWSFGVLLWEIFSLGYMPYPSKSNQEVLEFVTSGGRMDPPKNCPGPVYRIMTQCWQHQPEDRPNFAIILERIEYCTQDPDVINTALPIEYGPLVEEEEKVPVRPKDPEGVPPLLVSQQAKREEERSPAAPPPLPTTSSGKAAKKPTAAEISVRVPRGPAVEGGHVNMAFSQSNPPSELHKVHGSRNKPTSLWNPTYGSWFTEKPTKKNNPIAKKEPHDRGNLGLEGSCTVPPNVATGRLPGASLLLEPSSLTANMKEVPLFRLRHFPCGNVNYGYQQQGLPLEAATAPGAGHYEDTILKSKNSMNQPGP
# Experimental: as §2
# [6] = molecular target: ALK mutant (G1269A) (Homo sapiens, UniProt Q9UM73, G1269A); test: biochemical; conditions: 100 μM ATP
# Sequence of ALK mutant (G1269A) (Q9UM73 19-1620 G1269A): as the sequence (Q9UM73 19-1620 S1206Y) above, with Y1188S, G1251A counted along it
# Experimental: as §2
# [7] = intravenous, read-out: AUC0-t IV
# [8] = intravenous, read-out: t1/2 IV (converted)
# [9] = oral, read-out: t1/2 PO (converted)
# [10] = IC50 ALK Wild-type, Table 2, wild-type ALK
Structure (SMILES),IC50 [1] [nM],IC50 [2] [nM],"IC50 ([3]; ALK IC50, wild-type ALK) [nM]",other results
"CC(C)Oc1cc2c(=O)c3c4ccc(C#N)cc4[nH]c3n(C(C)C)c2c(F)c1N1CCN(C)CC1 [ALK-86, 4-Fluoro-2-isopropoxy-5-isopropyl-3-(4-methylpiperazin-1-yl)-11-oxo-6,11-dihydro-5H-indolo[2,3-b]quinoline-8-carbonitrile]",161,31,5.8,"AUC(0-t) [4, 7]: 1080 ng·h/mL; Cmax ([4]; intravenous, read-out: Cmax IV): 261 ng/mL; Tmax ([4]; intravenous, read-out: Tmax IV): 0.083 h; half-life [4, 8]: 5.23 h; AUC(0-t) ([4]; oral, read-out: AUC0-t PO): 2440 ng·h/mL; Cmax ([4]; oral, read-out: Cmax PO): 258 ng/mL; Tmax ([4]; oral, read-out: Tmax PO): 4 h; half-life [4, 9]: 5.11 h; bioavailability [4]: 44.6%"
"C#Cc1cc2c(=O)c3c4ccc(C#N)cc4[nH]c3n(C(C)C)c2cc1N1CCN(C)CC1 [ALK-71, 2-Ethynyl-5-isopropyl-3-(4-methylpiperazin-1-yl)-11-oxo-6,11-dihydro-5H-indolo[2,3-b]quinoline-8-carbonitrile]",,31,0.31,"IC50 [5]: 1.3 nM; IC50 [6]: 0.47 nM and 0.55 nM; IC50 [3, 10]: 0.31 nM"
"CCc1cc2c(=O)c3c4ccc(C#N)cc4[nH]c3n(C(C)C)c2cc1C1CCN(CCO)CC1 [CJ-2241, 2-Ethyl-3-(1-(2-hydroxyethyl)piperidin-4-yl)-5-isopropyl-11-oxo-6,11-dihydro-5H-indolo[2,3-b]quinoline-8-carbonitrile]",154,292,0.32,
"COc1cc2c(=O)c3c4ccc(C#N)cc4[nH]c3n(C3CCC3)c2c(F)c1N1CCN(C)CC1 [ALK-75, 5-Cyclobutyl-4-fluoro-2-methoxy-3-(4-methylpiperazin-1-yl)-11-oxo-6,11-dihydro-5H-indolo[2,3-b]quinoline-8-carbonitrile]",35.9,22,3.6,
"CCc1cc2c(=O)c3c4ccc(C#N)cc4[nH]c3n(C(C)C)c2cc1N1CCN(C2COC2)CC1 [ALK-77, 2-Ethyl-5-isopropyl-3-(4-(oxetan-3-yl)piperazin-1-yl)-11-oxo-6,11-dihydro-5H-indolo[2,3-b]quinoline-8-carbonitrile]",25.9,31,1.1,
"CCc1cc2c(=O)c3c4ccc(C#N)cc4[nH]c3n(C(C)C)c2cc1N1CCC(N2CCN(C)CC2)CC1 [ALK-79, 2-Ethyl-5-isopropyl-3-(4-(4-methylpiperazin-1-yl)piperidin-1-yl)-11-oxo-6,11-dihydro-5H-indolo[2,3-b]quinoline-8-carbonitrile]",2 ± 1,9.6,0.11,
"CCOc1cc2c(=O)c3c4ccc(C#N)cc4[nH]c3n(C(C)C)c2c(F)c1N1CCN(C)CC1 [ALK-83, 2-Ethoxy-4-fluoro-5-isopropyl-3-(4-methylpiperazin-1-yl)-11-oxo-6,11-dihydro-5H-indolo[2,3-b]quinoline-8-carbonitrile]",8.8,21,2,"AUC(0-t) [4, 7]: 1100 ng·h/mL; Cmax ([4]; intravenous, read-out: Cmax IV): 346 ng/mL; Tmax ([4]; intravenous, read-out: Tmax IV): 0.083 h; half-life [4, 8]: 5.24 h; AUC(0-t) ([4]; oral, read-out: AUC0-t PO): 4430 ng·h/mL; Cmax ([4]; oral, read-out: Cmax PO): 548 ng/mL; Tmax ([4]; oral, read-out: Tmax PO): 4 h; half-life [4, 9]: 4.1 h; bioavailability [4]: 78.8%"
"CCc1cc2c(=O)c3c4ccc(C#N)cc4[nH]c3n(C(C)C)c2cc1C1CCN(C2CCOCC2)CC1 [CJ-2240, 2-Ethyl-5-isopropyl-11-oxo-3-(1-(tetrahydro-2H-pyran-4-yl)piperidin-4-yl)-6,11-dihydro-5H-indolo[2,3-b]quinoline-8-carbonitrile]",33 ± 12,35,0.78,
"CCc1cc2c(=O)c3c4ccc(C#N)cc4[nH]c3n(C(C)C)c2cc1N1CCN(C(C)C)CC1 [ALK-80, 2-Ethyl-5-isopropyl-3-(4-isopropylpiperazin-1-yl)-11-oxo-6,11-dihydro-5H-indolo[2,3-b]quinoline-8-carbonitrile]",3 ± 1,7.6,0.22,
"CCc1cc2c(=O)c3c4ccc(C#N)cc4[nH]c3n(C(C)C)c2cc1N1CCC(N2CCOCC2)CC1 [ALK-78, 2-Ethyl-5-isopropyl-3-(4-morpholinopiperidin-1-yl)-11-oxo-6,11-dihydro-5H-indolo[2,3-b]quinoline-8-carbonitrile]",13.1,25,0.7,
"C#Cc1cc2c(=O)c3c4ccc(C#N)cc4[nH]c3n(C3CCC3)c2cc1N1CCN(C)CC1 [ALK-72, 5-Cyclobutyl-2-ethynyl-3-(4-methylpiperazin-1-yl)-11-oxo-6,11-dihydro-5H-indolo[2,3-b]quinoline-8-carbonitrile]",,52,0.67,"IC50 [5]: 2.8 nM; IC50 [6]: 2.4 nM; IC50 [3, 10]: 0.67 nM"
"COc1cc2c(=O)c3c4ccc(C#N)cc4[nH]c3n(C3CCC3)c2c(F)c1N1CCC(N2CCOCC2)CC1 [ALK-74, 5-Cyclobutyl-4-fluoro-2-methoxy-3-(4-morpholinopiperidin-1-yl)-11-oxo-6,11-dihydro-5H-indolo[2,3-b]quinoline-8-carbonitrile]",84,98,8.4,
"CCc1cc2c(=O)c3c4ccc(C#N)cc4[nH]c3n(C(C)C)c2cc1C1CCN(C)CC1 [CJ-2217, 2-Ethyl-5-isopropyl-3-(1-methylpiperidin-4-yl)-11-oxo-6,11-dihydro-5H-indolo[2,3-b]quinoline-8-carbonitrile]",17 ± 8,14,0.52,
"CCc1cc2c(=O)c3c4ccc(C#N)cc4[nH]c3n(C(C)C)c2cc1C1CCN(C2COC2)CC1 [CJ-2238, 2-Ethyl-5-isopropyl-3-(1-(oxetan-3-yl)piperidin-4-yl)-11-oxo-6,11-dihydro-5H-indolo[2,3-b]quinoline-8-carbonitrile]",1040,231,2.6,
"CCc1cc2c(=O)c3c4ccc(C#N)cc4[nH]c3n(C(C)C)c2cc1C1CCN(C(C)C)CC1 [CJ-2239, 2-Ethyl-5-isopropyl-3-(1-isopropylpiperidin-4-yl)-11-oxo-6,11-dihydro-5H-indolo[2,3-b]quinoline-8-carbonitrile]",36 ± 13,16,0.77,
